In PMC2855214 (Biochemistry, 2010):

Target: T1, human UMP/CMP kinase (Homo sapiens, UniProt P30085)
T1 sequence (P30085 1-196): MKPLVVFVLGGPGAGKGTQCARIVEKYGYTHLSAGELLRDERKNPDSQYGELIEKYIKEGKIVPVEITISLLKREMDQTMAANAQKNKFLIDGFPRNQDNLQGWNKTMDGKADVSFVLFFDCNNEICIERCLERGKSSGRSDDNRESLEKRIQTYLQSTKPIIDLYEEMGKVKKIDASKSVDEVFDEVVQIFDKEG
Test: preparative enzymatic phosphorylation, product NMR
Type: biochemical
Settings: ATP, Mg2+, pH 8, 37 °C

For Nc1ccn([C@@H]2O[C@H](COP(=O)(O)O)[C@@H](O)C2(F)F)c(=O)n1 [F2CMP, 2′-Deoxy-2′,2′-difluorocytidine-5′-monophosphate], the “preparative enzymatic phosphorylation, product NMR” value was “F2CDP was generated enzymatically from F2CMP and ATP with human UMP/CMP kinase”.
